Results: patent publication US11919854B2, “P2RX7 modulators in therapy” (Centre national de la recherche scientifique, priority 2018, dated 2024)

Biological target: T1, mouse P2RX7 (mP2RX7) (Mus musculus, UniProt Q9Z1M0)
T1 construct: expressed in transfected cells; host or cells: HEK cells
T1 sequence (Q9Z1M0 1-595): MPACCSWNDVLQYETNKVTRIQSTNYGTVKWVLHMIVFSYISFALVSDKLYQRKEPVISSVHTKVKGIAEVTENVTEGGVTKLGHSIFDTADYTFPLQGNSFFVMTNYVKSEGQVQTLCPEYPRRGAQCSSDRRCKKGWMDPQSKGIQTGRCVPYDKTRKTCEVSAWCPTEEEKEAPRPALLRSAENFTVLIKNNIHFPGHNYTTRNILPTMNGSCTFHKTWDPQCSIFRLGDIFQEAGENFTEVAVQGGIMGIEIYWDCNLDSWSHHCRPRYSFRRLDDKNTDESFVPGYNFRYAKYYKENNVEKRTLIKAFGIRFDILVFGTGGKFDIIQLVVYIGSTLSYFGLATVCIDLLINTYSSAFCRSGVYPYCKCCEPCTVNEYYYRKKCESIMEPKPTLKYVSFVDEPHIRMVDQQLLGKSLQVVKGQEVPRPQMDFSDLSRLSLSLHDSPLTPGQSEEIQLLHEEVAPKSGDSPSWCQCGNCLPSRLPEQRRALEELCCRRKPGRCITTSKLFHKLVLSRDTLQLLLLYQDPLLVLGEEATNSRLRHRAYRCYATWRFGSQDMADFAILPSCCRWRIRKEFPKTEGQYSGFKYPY
Assay: Channel activity (Fluo4-AM) and large pore opening (Topro3) by flow cytometry, HEK cells expressing mP2RX7, 1 h BzATP
Assay type: cell-based
Experimental: Calcium channel activity (Fluo4AM probe) and large pore opening (Topro3 probe) were analysed by FACS on mP2RX7 HEK cells. Cells were non stimulated (NS) or treated with BzATP (500 μM) alone or in the presence of HEI2314, HEI2328, HEI2333 or HEI2336 (used at 50 μM).
Calcium channel activity (Fluo4AM probe) and large pore opening (Topro3 probe) were analysed by FACS on mock and mP2RX7 HEK cells. Cells were non stimulated (NS) or treated with BzATP (500 μM) alone or in the presence of HEI2328 used at 50 μM.
2.1. […] Cation channel activity is assayed with the Fluo4 AM (Invitrogen) probe and opening of large pore with Topro3 (Invitrogen). In each experiment 2×10^6 cells were incubated with 50 nM Fluo4-AM for 30 minutes. After washing, cells were treated with 500 μM BzATP (3′-O-(4-benzoyl)benzoyl ATP) for 1 h, or non-treated, in presence of the compounds of the invention at 50 μM. When indicated, the Topro3 probe (8.5 nM) was added during the 1 h stimulation time. Fluorescence was assayed by flow cytometry.

[1] = cells expressing mP2RX7, BzATP 500 μM

Row | SMILES | Topro3 positive cells (BzATP 500 μM only, 1 h, mP2RX7 cells) | activity in Mock cells (Mock HEK cells (no P2X receptors)) | increase of Ca2+ entry [1] | increase of large pore opening [1] | Topro3 entry (large pore opening) (compound 50 μM, BzATP 500 μM, 1 h, mP2RX7 HEK cells)
1 | Nc1ncnc2c1ncn2[C@@H]1O[C@H](COP(=O)(O)OP(=O)(O)OP(=O)(O)O)[C@@H](OC(=O)c2ccc(C(=O)c3ccccc3)cc2)[C@H]1O [BzATP, 3′-O-(4-benzoyl)benzoyl ATP, reference compound] | 24.7% | inactive | 15 fold | 4 fold | –
2 | O=C(NCc1ccc(Cl)cc1Cl)[C@@H]1CCC(=O)N1C(=O)Nc1ccccc1Cl [HEI2314, (S)—N^1-(2-Chlorophenyl)-N^2-(2,4-dichlorobenzyl)-5-oxopyrrolidine-1,2-dicarboxamide] | – | – | – | – | increase Topro3 entry only in presence of BzATP
